Results published in patent US6716635B2, “Method for identifying regulators of protein-advanced glycation end product (protein-AGE) formation” (University of Kentucky Research Foundation, priority 2000, dated 2004).

Tests used:
[1] = system: histone H1 (glycation by ADP-ribose); test: AGE-fluorescence screening of glycation inhibitors, histone H1 + ADP-ribose, 96 well microtiter plates; assay type: biochemical, calf; settings: for inhibition of AGE-fluorescence, in words: 1 to 10 mM, 5 days; for AGE-fluorescence (day 5): 5 days incubation; for % inhibition: AGE-fluorescence day 5; for AGE-fluorescence (day 0): value (spread); for suppression of AGE-fluorescence, primary screen outcome: test compound 5 mM or limit of solubility, pH 7.4, 37° C.
Protocol: A 96-well, microtiter plate was used to carry out 48 reactions in duplicate. […] A second pair of wells contains the reactants and the known glycation inhibitor aminoguanidine, and functions as a positive control. Histone H1 is commercially available, and can be prepared following the procedures set out in Johns, et al., Biochem J. 92:55-59(1964), which is incorporated by reference herein.
The reaction system is 50 mM potassium phosphate buffer, at pH 7.4 to which 1.5 mg/ml histone H1 and 1.0 mM ADP-ribose were added. Reaction volume was 300 ul. AGE-fluorescence was measured over time, with incubation at 37° C., at 355 nm (ex) and 405 nm (em). Upon comparison to the control, a test compound was deemed potentially positive if AGE-fluorescence was suppressed.
The histone H1 (1.5 mg/ml) was combined with 1 mM ADP-ribose, in […] KH2PO4 buffer (pH 7.4, 37° C., 0.015% NaN3 added, to inhibit microbial growth). This reaction mixture was added, to 96 well microtiter plates. Test compounds were added to the reaction mixture, at concentrations ranging from 1 to 10 mM, in reaction volumes of 300 ul. Texts were run in duplicate.
Accumulated protein damage was determined by measuring AGE-fluorescence, at wavelengths (λex=370 nm; λ em=440 nm. The fluorescence is suppressed in the presence of compounds with inhibitory activity. Assays were read on a conventional microtiter plate, with a filter setting that approached the above conditions (λ ex: 355 nm, λ […]: 405 nm), which is in the range of the broad excitation/emission maxima of AGE compounds.
The fluorescence was measured at the beginning, and after 5 days of incubation.
The known glycation inhibitor aminoguanidine was used as a control.

[2] = system: histone H1 (carbonylation); test: histone H1 carbonylation by reducing sugars, and interference by compounds; assay type: biochemical; settings: for carbonylation of histone H1, in words / amount of carbonylation: 1 mM sugar, pH 7.4, 7 days
Protocol: Both protein cross-linking and protein carbonylation are well established indicia of protein glycation. See Schacter, et al., Free Radic Biol Med. 17:429-437 (1994), incorporated by reference. In brief, following the assays described infra, formation of protein cross-linking was measured on 12% SDS-PAGE, followed by Coomassie and silver staining. Cross-linking was detectable with a high degree of sensitivity, when the reaction between ADP-ribose and histone H1 was carried out at pH 9.0. […] In FIG. 8, the abbreviations “M,” “D”, and “O” represent “monomer,” “dimer” and “oligomer,” respectively. Silver staining is the preferred way of determining the cross linking. Protein carbonlyation was determined via Western blotting. Specifically, AGE-BSA, which had been prepared by incubating BSA with 1.66M glucose, at pH 7.4 for 90 days at 37° C., was recognized after being derivatized with 2.4 dinitrophenlyhydrazine (“DNP”), when tested with antibodies specific for protein bound, DNP epitopes.
A series of experiments were carried out to compare different reducing sugars as glycation agents. In addition to ADP-ribose, ADP-glucose, D-ribose and D-glucose were tested. Briefly, histone H1 was combined with 1 mM of each sugar, and the mixture was incubated at pH 7.4. After 7 days of incubation, reaction aliquots were analyzed on 12% SDS-PACE gels, with silver staining. Results are presented in FIGS. 19A and B. In each of these, lane 1 is a control, with no sugar added, while lanes 2-5 show results using D-glucose, D-ribose, ADP-glucose, and ADP-ribose, respectively. […] The amount of carbonylation caused by ADP-ribose (0.82 mole/mole histone H1), and D-ribose (0.06 mole/mole histone H1) correlated with immunostaining.
In order to determine if the carbonylation of histone H1 by ADP-ribose involved an oxidative pathway, several compounds, known to interfere with glycoxidation of proteins by D-glucose were tested to determine if they interfered with this action by ADP-ribose. The compounds tested included 5 mM DTPA under argon, 5 mM aminoguanidine, 5 mM N^α acetyl L-cysteine, 5 mM mannitol, and 100 units/ml catalase.

[3] = system: He-Cat (human epidermal keratinocytes); test: protection against α-dicarbonyl toxicity in keratinocytes, cell count; assay type: cell-based; settings: 72 hours
Protocol: (§1) Continuously cultured cell lines “He-Cat” (human epidermal keratinocytes), and “CF-3” (human dermal fibroblasts), were cultured under standard conditions, divided biweekly into DMEM containing 10% fetal bovine serum, and were kept in a humidified atmosphere containing 5% CO2 at 37° C. In order to divide the cells, 5% trypsin was used on the keratinocytes, and 1% trypsin was used on the fibroblasts.
(§2) Keratinocytes were seeded at 2×10^4 cells/well, and fibroblasts at 4×10^4 cells/well, using 6 well dishes. The cells were allowed to attach to the plate overnight. Either D-penicillamine or aminoguanidine (1 mM each) was added to the plates 15 minutes prior to addition of glyoxal or methylglyoxal. The α-dicarbonyl was left for 72 hours. Varying concentrations of the α-dicarbonyl were used. Cells were counted with a Coulter counter after 72 hours of stress. Cultures were also run where the glyoxal or methylglyoxal was used without the scavenger. L-alanine was used as a negative control as it was not expected to have protective effect.

[4] = system: CF-3 (human dermal fibroblasts); test: protection against α-dicarbonyl toxicity in fibroblasts, cell count; assay type: cell-based; settings: 72 hours
Protocol: as §1, §2

[5] = compound 1 mM added 15 minutes prior to methylglyoxal

Compound: NC(CCS)C(=O)O (racemic) [D,L-Homocysteine]
- inhibition of AGE-fluorescence, in words [1]: increased AGE-fluorescence
- AGE-fluorescence (day 5) ([1]; compound 1 mM): 16 (1.1)
- % inhibition ([1]; compound 1 mM): 26%
- AGE-fluorescence (day 0) ([1]; compound 1 mM): 1.3 (0.0)
- AGE-fluorescence (day 5) ([1]; compound 5 mM): 22 (0.1)
- % inhibition ([1]; compound 5 mM): 0%
- AGE-fluorescence (day 0) ([1]; compound 5 mM): 1.2 (0.2)
- AGE-fluorescence (day 5) ([1]; compound 10 mM): 27 (1.7)
- % inhibition ([1]; compound 10 mM): 0%
- AGE-fluorescence (day 0) ([1]; compound 10 mM): 1.1 (0.1)

Compound: O=C1CC(=O)NC(=S)N1 [2-Thiobarbituric acid]
- AGE-fluorescence (day 5) ([1]; compound 1 mM): 12 (0.4)
- % inhibition ([1]; compound 1 mM): 45%
- AGE-fluorescence (day 0) ([1]; compound 1 mM): 1.1 (0.1)
- AGE-fluorescence (day 5) ([1]; compound 5 mM): 5.5 (0.4)
- % inhibition ([1]; compound 5 mM): 78%
- AGE-fluorescence (day 0) ([1]; compound 5 mM): 1.2 (0.1)
- AGE-fluorescence (day 5) ([1]; compound 10 mM): 2.3 (0.0)
- % inhibition ([1]; compound 10 mM): 95%
- AGE-fluorescence (day 0) ([1]; compound 10 mM): 1.3 (0.1)

Compound: Nc1ncnc2c1ncn2[C@@H]1O[C@H](COP(=O)(O)OP(=O)(O)O[C@H]2O[C@H](CO)[C@@H](O)[C@H](O)[C@H]2O)[C@@H](O)[C@H]1O [ADP-glucose]
- carbonylation of histone H1, in words [2]: Neither D-glucose nor ADP-glucose caused significant carbonylation

Compound: Nc1ncnc2c1ncn2[C@@H]1O[C@H](COP(=O)(O)OP(=O)(O)OC[C@H]2OC(O)[C@H](O)[C@@H]2O)[C@@H](O)[C@H]1O (stereo partly shown) [ADP-ribose]
- amount of carbonylation [2]: 0.82 mole/mole histone H1
- carbonylation of histone H1, in words [2]: extensive carbonylation

Compound: NCCS [Cysteamine]
- inhibition of AGE-fluorescence, in words [1]: somewhat better inhibition
- AGE-fluorescence (day 5) ([1]; compound 1 mM): 10 (0.6)
- % inhibition ([1]; compound 1 mM): 55%
- AGE-fluorescence (day 0) ([1]; compound 1 mM): 1.0 (0.1)
- AGE-fluorescence (day 5) ([1]; compound 5 mM): 9.0 (0.7)
- % inhibition ([1]; compound 5 mM): 60%
- AGE-fluorescence (day 0) ([1]; compound 5 mM): 1.1 (0.1)
- AGE-fluorescence (day 5) ([1]; compound 10 mM): 6.0 (0.3)
- % inhibition ([1]; compound 10 mM): 76%
- AGE-fluorescence (day 0) ([1]; compound 10 mM): 1.2 (0.2)

Compound: O=C[C@H](O)[C@@H](O)[C@H](O)[C@H](O)CO [D-glucose]
- carbonylation of histone H1, in words [2]: Neither D-glucose nor ADP-glucose caused significant carbonylation

Compound: O=C[C@H](O)[C@H](O)[C@H](O)CO [D-ribose]
- amount of carbonylation [2]: 0.06 mole/mole histone H1
- carbonylation of histone H1, in words [2]: a lesser amount

Compound: O=C(O)CN(CCN(CC(=O)O)CC(=O)O)CCN(CC(=O)O)CC(=O)O [DTPA]
- interference with carbonylation of histone H1 by ADP-ribose ([2]; 5 mM under argon): none of these interfered with the carbonylation

Compound: N[C@@H](CCC(=O)N[C@@H](CS)C(=O)NCC(=O)O)C(=O)O [GSH, glutathione]
- AGE-fluorescence (day 5) ([1]; compound 1 mM): 19 (0.3)
- % inhibition ([1]; compound 1 mM): 10%
- AGE-fluorescence (day 0) ([1]; compound 1 mM): 1.3 (0.0)
- AGE-fluorescence (day 5) ([1]; compound 5 mM): 17 (0.3)
- % inhibition ([1]; compound 5 mM): 20%
- AGE-fluorescence (day 0) ([1]; compound 5 mM): 1.1 (0.3)
- AGE-fluorescence (day 5) ([1]; compound 10 mM): 14 (0.5)
- % inhibition ([1]; compound 10 mM): 35%
- AGE-fluorescence (day 0) ([1]; compound 10 mM): 1.1 (0.0)

Compound: N[C@@H](CS)C(=O)O [L-Cys, L-cysteine]
- AGE-fluorescence (day 5) ([1]; compound 1 mM): 14 (0.3)
- % inhibition ([1]; compound 1 mM): 36%
- AGE-fluorescence (day 0) ([1]; compound 1 mM): 1.2 (0.1)
- AGE-fluorescence (day 5) ([1]; compound 5 mM): 11 (0.2)
- % inhibition ([1]; compound 5 mM): 50%
- AGE-fluorescence (day 0) ([1]; compound 5 mM): 1.1 (0.1)
- AGE-fluorescence (day 5) ([1]; compound 10 mM): 9.0 (0.2)
- % inhibition ([1]; compound 10 mM): 61%
- AGE-fluorescence (day 0) ([1]; compound 10 mM): 1.2 (0.1)
- suppression of AGE-fluorescence, primary screen outcome [1]: potential inhibitor

Compound: N[C@@H](CS)C(=O)NCC(=O)O [L-Cys-Gly, NH2-L-cys-gly-COOH]
- inhibition of AGE-fluorescence, in words [1]: increased AGE-fluorescence
- AGE-fluorescence (day 5) ([1]; compound 1 mM): 17
- % inhibition ([1]; compound 1 mM): 20%
- AGE-fluorescence (day 0) ([1]; compound 1 mM): 1.3 (0.3)
- AGE-fluorescence (day 5) ([1]; compound 5 mM): 26 (0.4)
- % inhibition ([1]; compound 5 mM): 0%
- AGE-fluorescence (day 0) ([1]; compound 5 mM): 1.2 (0.2)
- AGE-fluorescence (day 5) ([1]; compound 10 mM): 40 (0.0)
- % inhibition ([1]; compound 10 mM): 0%
- AGE-fluorescence (day 0) ([1]; compound 10 mM): 1.2 (0.1)

Compound: COC(=O)[C@@H](N)CS [L-Cys-OMe, L-cysteine methylester]
- AGE-fluorescence (day 5) ([1]; compound 1 mM): 15 (0.1)
- % inhibition ([1]; compound 1 mM): 31%
- AGE-fluorescence (day 0) ([1]; compound 1 mM): 1.2 (0.1)
- AGE-fluorescence (day 5) ([1]; compound 5 mM): 12 (0.8)
- % inhibition ([1]; compound 5 mM): 46%
- AGE-fluorescence (day 0) ([1]; compound 5 mM): 1.3 (0.1)
- AGE-fluorescence (day 5) ([1]; compound 10 mM): 9.0 (0.2)
- % inhibition ([1]; compound 10 mM): 61%
- AGE-fluorescence (day 0) ([1]; compound 10 mM): 1.2 (0.1)
- suppression of AGE-fluorescence, primary screen outcome [1]: potential inhibitor

Compound: C[N+](C)(C)[C@@H](Cc1c[nH]c(=S)[nH]1)C(=O)[O-] [L-Ergothioneine]
- inhibition of AGE-fluorescence, in words [1]: somewhat better inhibition
- AGE-fluorescence (day 5) ([1]; compound 1 mM): 13 (0.0)
- % inhibition ([1]; compound 1 mM): 40%
- AGE-fluorescence (day 0) ([1]; compound 1 mM): 1.0 (0.1)
- AGE-fluorescence (day 5) ([1]; compound 5 mM): 9.3 (0.2)
- % inhibition ([1]; compound 5 mM): 59%
- AGE-fluorescence (day 0) ([1]; compound 5 mM): 1.2 (0.0)
- AGE-fluorescence (day 5) ([1]; compound 10 mM): 7.4 (0.1)
- % inhibition ([1]; compound 10 mM): 69%
- AGE-fluorescence (day 0) ([1]; compound 10 mM): 1.2 (0.1)

Compound: C[C@H](N)C(=O)O [L-alanine]
- protection against methylglyoxal induced growth inhibition [3, 5]: no protective effect
- protection against methylglyoxal induced growth inhibition [4, 5]: no protective effect

Compound: CC(=O)N[C@@H](CS)C(=O)O [NAC, N α-acetyl-L-cysteine, reference compound]
- AGE-fluorescence (day 5) ([1]; compound 1 mM): 11 (0.6)
- % inhibition ([1]; compound 1 mM): 51%
- AGE-fluorescence (day 0) ([1]; compound 1 mM): 1.2 (0.2)
- AGE-fluorescence (day 5) ([1]; compound 5 mM): 10 (0.4)
- % inhibition ([1]; compound 5 mM): 55%
- AGE-fluorescence (day 0) ([1]; compound 5 mM): 1.0 (0.1)
- AGE-fluorescence (day 5) ([1]; compound 10 mM): 9.4 (0.6)
- % inhibition ([1]; compound 10 mM): 58%
- % inhibition ([1]; compound 10 mM, listed as N α-acetyl-L-cysteine): 61%
- AGE-fluorescence (day 0) ([1]; compound 10 mM): 1.1 (0.1)
- interference with carbonylation of histone H1 by ADP-ribose ([2]; compound 5 mM): none of these interfered with the carbonylation

Compound: NCCC(=O)O [beta-alanine]
- suppression of AGE-fluorescence, primary screen outcome [1]: true negatives

Compound: OC[C@@H](O)[C@@H](O)[C@H](O)[C@H](O)CO [mannitol]
- interference with carbonylation of histone H1 by ADP-ribose ([2]; compound 5 mM): none of these interfered with the carbonylation

Compound: CC(=O)C=O [methylglyoxal]
- concentration completely inhibitory to growth ([3]; no scavenger): 600 µM
- concentration completely inhibitory to growth ([4]; no scavenger): 600 µM

Compound: catalase
- interference with carbonylation of histone H1 by ADP-ribose ([2]; 100 units/ml): none of these interfered with the carbonylation
